Experimental data published in publication PMC9623576, “Semisynthesis and Evaluation of Anti-Inflammatory Activity of the Cassane-Type Diterpenoid Taepeenin F and of Some Synthetic Intermediates” (Journal of Natural Products, 2022).

How the values were obtained:
[1] = test system: HT29 human colon adenocarcinoma cells; assay: MTT cancer cell proliferation assay, HT29; type: cell-based; settings: Homo sapiens, HT29, 72 h, MTT; for IC50: HT-29, 72 h, read-out: IC50; for IC80 / IC20: HT-29; for IC20: read-out: IC20
Description: (§1) The five newly synthesized diterpenoids were evaluated for their cytotoxic effects against three selected tumor cell lines, B16-F10 murine melanoma cells, HT29 human colon adenocarcinoma cells, and HepG2 human hepatocarcinoma cells at increasing concentrations (0–100 μg/mL). After 72 h of treatment, cell viability was determined by an MTT assay, where the tetrazolium dye was transformed into formazan in the mitochondria of viable cells, its absorbance measured at 570 nm and expressed as a percentage with respect to untreated control cells (S3 Figure.). The concentrations required for 20, 50, and for 80% growth inhibition (IC20, IC50, and IC80) were also determined for each compound (Table 2).
(§2) A stock solution was frozen and stored at […]. Before the experiments, this solution was diluted in cell-culture medium to the adequate concentrations for each experiment. […] For nitrite assay, subcytotoxic concentrations (3/4IC50, 1/2IC50, and 1/4IC50), were used to ensure that the NO inhibitory potential was not due to a possible cytotoxic effect. The concentrations of 3/4IC50, 1/2IC50, and 1/4IC50 were used for the cell-cycle analysis. All experiments were measured and compared with control (untreated cells after 24, 48, or 72 h of treatment.)
(§3) Human colorectal adenocarcinoma cell line HT29 (ECACC no. 9172201; ATCC no. HTB-38), human hepatocarcinome cell line HepG2 (ECACC no. 85011430), mouse melanoma cells B16-F10 (ATCC no. CRL-6475), and murine monocyte/macrophage-like RAW 264.7 cell line (ATCC no, TIB-71) were cultured in DMEM (Dulbecco’s modified Eagle’s medium) supplemented with 2 mM glutamine, 10% heat-inactivated FCS (fetal calf serum), 10 000 units/mL of penicillin and 10 mg/mL of streptomycin, (for all cancer cell lines), 50 μg/mL of gentamicin (only for RAW 264.7 cell line), and incubated at 37 °C, in an atmosphere of 5% CO2 and 95% humidity. The culture media were changed every 48 h, and the confluent cultures were separated with a trypsin solution (0.25% EDTA). In all experiments, monolayer cells were grown to 80–90% confluence, in sterile cell culture flasks. All cell lines used were purchased from the cell bank of the University of Granada, Spain.
(§4) The cytotoxicity assay was performed by the MTT (3-(4,5-dimethylthiazol-2-yl)-2,5-diphenyltetrazolium bromide) method.[21] To quantify the cytotoxicity of compounds, the fresh and suspended cells were seeded in 96-well plates to a volume of 100 μL at 6.0 × 10^3 cells/mL for HT29 and RAW 264.7 cell lines, at 5.0 × 10^3 cells/mL for B16-F10 cells and 15.0 × 10^3 for Hep G2. Then, cells were incubated to adhere over 24 h at 37 °C with 5% CO2. All tested compounds were prepared in fresh growth medium. After 24 h, an additional 100 μL of medium with the corresponding concentrations of products (only medium in the control wells) was added to the corresponding wells, at various final concentrations (0–100 μg/mL). Finally, after 72 h of incubation at 37 °C with 5% CO2, the medium with the compounds were removed and 100 μL of MTT solution (0.5 mg/mL) in 50% of PBS 50% of medium was added to each well. After 1.5 h of incubation, formazan was resuspended in 100 μL of DMSO, and each concentration was tested in triplicate. Relative cell viability, with respect to untreated control cells, was measured by absorbance at 570 nm on an ELISA plate reader (Tecan Sunrise MR20-301, TECAN, Austria).
(§5) Cytotoxicity experimental data were fitted to a sigmoidal function (y = ymax/(x/a)^−b) by nonlinear regression. […] These analyses were performed using SigmaPlot 12.5 software. Similar analyses were performed to obtain the IC50 of NO production. All data shown here are representative of at least two independent experiments performed in triplicate. All quantitative data were summarized as the mean ± standard deviation (SD).

[2] = test system: HepG2 human hepatocarcinoma cells; assay: MTT cancer cell proliferation assay, HepG2; type: cell-based; settings: Homo sapiens, HepG2, 72 h, MTT; for IC50: read-out: IC50; for IC20: read-out: IC20
Description: as §1, §2, §3, §4, §5

[3] = test system: B16-F10 cells; assay: Annexin V-FITC/propidium iodide apoptosis flow cytometry; type: cell-based, murine; settings: for apoptotic effect: B16-F10, after 24 h of treatment
Source text: Cytometric FACS analysis using annexin V-FITC and PI staining was used to differentiate four cell populations (Figure 5): normal cells (annexin V^– and PI^–), early apoptotic cells (annexin V^+ and PI^–), late apoptotic cells (annexin V^+ and PI^+), and necrotic cells (annexin V^– and PI^+).[33]
To confirm the proapoptotic effect of compounds 16 and 22, annexin V and PI double staining was detected with flow cytometry. An early indicator of apoptosis is the translocation of the membrane phospholipid phosphatidylserine from the cytoplasmic interface to the external surface of the plasmatic membrane. The phospholipid phosphatidylserine that accumulates on the external plasmatic membrane can be detected by annexin V/PI is a fluorescent dye that binds to the nuclei of dead cells. Apoptosis was assessed by flow cytometry using a FACScan (fluorescence-activated cell sorter) flow cytometer (Coulter Corporation, Hialeah, FL, USA).[37],[38] For this assay, 5 × 10^4 B16-F10 cells were plated in 24-well plates with 1.5 mL of medium and incubated for 24 h. […] Cells were collected and resuspended in a binding buffer (10 mM HEPES/NaOH, pH 7.4, 140 mM NaCl, 2.5 mM CaCl2). Annexin V-FITC conjugate (1 μg/mL) was then added and incubated for 15 min at room temperature in darkness. Just before the analysis by flow cytometry, cells were stained with 5 μL of 1 mg/mL PI solution. In each experiment, approximately 10 × 10^3 cells were analyzed, and the experiment was duplicated twice.

[4] = B16-F10, 48 h, IC50 concentration
[5] = B16-F10, 48 h, IC80 concentration
[6] = B16-F10, 72 h, IC50 concentration
[7] = B16-F10, 72 h, IC80 concentration

COC(=O)[C@]1(C)CCC[C@@]2(C)[C@H]1CC=C1C(C)=C(C(C)C)C(=O)C[C@@H]12 [Compound 16, (1R,4aR,10aR)-Methyl 7-isopropyl-1,4a,8-trimethyl-6-oxo-1,2,3,4,4a,4b,5,6,10,10a-decahydrophenanthrene-1-carboxylate]
IC50 [1]: 33.4 ± 2.16 µM
IC80 [1]: 55 ± 0.93 µM
IC20 [1]: 21.4 ± 3.09 µM
IC50 [2]: 18.5 ± 4.73 µM
IC20 [2]: 5.05 ± 2.74 µM
early apoptosis (Q4, annexin V+ PI-) [3, 4]: 3.73%
late apoptosis (Q2, annexin V+ PI+) [3, 4]: 9.40%
total apoptosis [3, 4]: 13.13%
early apoptosis (Q4, annexin V+ PI-) [3, 5]: 12.06%
late apoptosis (Q2, annexin V+ PI+) [3, 5]: 14.53%
total apoptosis [3, 5]: 26.6%
early apoptosis (Q4, annexin V+ PI-) [3, 6]: 0.06%
late apoptosis (Q2, annexin V+ PI+) [3, 6]: 7.63%
total apoptosis [3, 6]: 7.7%
early apoptosis (Q4, annexin V+ PI-) [3, 7]: 27.63%
late apoptosis (Q2, annexin V+ PI+) [3, 7]: 21.13%
total apoptosis [3, 7]: 48.76%
apoptotic effect [3]: did not exert a significant effect

COC(=O)[C@]1(C)CCC[C@]2(C)c3cc(O)c(C=O)c(C)c3CC[C@@H]12 [Compound 21, (1R,4aS,10aR)-Methyl 7-formyl-6-hydroxy-1,4a,8-trimethyl-1,2,3,4,4a,9,10,10a-octahydrophenanthrene-1-carboxylate]
IC50 [1]: 20.1 ± 0.61 µM
IC80 [1]: 30.6 ± 0.81 µM
IC20 [1]: 13.5 ± 0.55 µM
IC50 [2]: 37.9 ± 5.4 µM
IC80 [2]: 45.3 ± 0.9 µM
IC20 [2]: 33.2 ± 8.64 µM
early apoptosis (Q4, annexin V+ PI-) [3, 4]: 6.93%
late apoptosis (Q2, annexin V+ PI+) [3, 4]: 18.30%
total apoptosis [3, 4]: 25.23%
early apoptosis (Q4, annexin V+ PI-) [3, 5]: 5.73%
late apoptosis (Q2, annexin V+ PI+) [3, 5]: 27.13%
total apoptosis [3, 5]: 32.86%
early apoptosis (Q4, annexin V+ PI-) [3, 6]: 5.33%
late apoptosis (Q2, annexin V+ PI+) [3, 6]: 17.03%
total apoptosis [3, 6]: 22.36%
early apoptosis (Q4, annexin V+ PI-) [3, 7]: 23.56%
late apoptosis (Q2, annexin V+ PI+) [3, 7]: 17.66%
total apoptosis [3, 7]: 41.23%
apoptotic effect [3]: did not exert a significant effect
